Series [1] deals with naso pharyngeal carcinoma with metastases in the lymph nodes of the left neck and in the lung. The series can be described thus: In vivo studies Example 10: patient, oral chlorin e4 sodium plus laser and LED light. The arrangement: species or system human. The method, then: A patient with naso pharyngeal carcinoma with metastases in the lymph nodes of the left neck and in the lung, was treated successfully. The treatment consisted of five courses. For each course, five doses of 62.5-187.5 mg chlorin e4 sodium were administered orally over the course of eight days. 24-48 hours after each oral dose of chlorin e4 sodium, the patient was treated with laser and LED light having a wavelength of 660 nm and 760 nm. Additionally an interstitial light treatment using a fine needle was performed on the left lung to a tumour that was large in size with an optical fibre laser having a wavelength of 660 nm and 760 nm.

Series [2] concerns S180 sarcoma. The series can be described thus: Photodynamic therapy study with mice with subcutaneous S180 sarcoma. The format is in vivo, Kunming mice. Here is the method:
In this experiment the effects of photodynamic therapy mediated by three different photosensitizers, namely Duteroporphyrin, chlorin e4 sodium and 5-ALA, on mouse S180 sarcoma were observed. Duteroporphyrin and 5-ALA are porphyrin derivatives.
40 Kunming mice with well grown subcutaneous S180 sarcoma were randomly divided into four groups: (A) Duteroporphyrin group (10 mg/kg), (B) chlorin e4 sodium group (20 mg/kg), (C) 5-ALA group (100 mg/kg) and (D) blank control group. The mice in groups A and B were subjected to irradiation 8-10 hours after tail vein injection of the photo sensitizers, while the mice in group C were subjected to irradiation 3 hours after tail vein injection of the photosensitizer. A laser with a wavelength of 630 nm was used for groups A and C, while a duel-frequency laser with wavelengths of 660 nm and 760 nm was used for group B. The local tumour sites were irradiated vertically, with the diameter of the laser spots being 1.2-1.5 cm. The whole tumour and 3-5 mm of normal tissue around the tumour were covered by the laser. The lasers were applied to groups A, B and C for 20 minutes, with a power density of 150 mW/cm^2 and an energy density of 180 J/cm^2. The mice in control group D were not subjected to irradiation.

A short description of series [3]: Singlet oxygen phosphorescence at 1270 nm after pulsed laser excitation. Particulars: for Decay time of photosensitized singlet oxygen phosphorescence / Rise time of photosensitized singlet oxygen phosphorescence: air saturated. The format is physicochemical. The method, then: Singlet oxygen phosphorescence was detected using measurement of infrared phosphorescence at 1270 nm corresponding to the transition of oxygen molecules from the singlet to the triplet state. Phosphorescence was recorded at room temperature with the laser phosphorescence spectrometer described at A. A. Krasnovsky Jr., Photodynamic action and singlet oxygen, Biofizika, 2004, 49, 305-321; and A. A. Krasnovsky Jr., Singlet oxygen and primary mechanisms of photodynamic therapy and photodynamic diseases, In: Photodynamic therapy at the cellular level, ed. A. B. Uzdensky, Research Singpost, Kerala, India, 2007, 17-62. For excitation, nanosecond pulses of 511 nm radiation from a copper-vapour laser (Troitzk, Physics Institute of the Russian Academy of Science) were employed. Laser radiation passed additionally through a green light filter SZS-22 (4 mm), which transmitted laser light and cut off IR laser radiation caused by heating of the laser tube. Pulse duration was 20 ns, pulse energy varied from 18 to 40 μJ and the pulse repetition rate was 12 kHz. The laser light was collimated on the surface of a 1 cm rectangular quartz cuvette. The diameter of the illuminated spot on the surface of the cell was 5 mm. For kinetic measurements another spectrometer was used without a monochromator. In this case, phosphorescence resulting from the right angle to the excitation beam was focused on the photocathode of a cooled S-1 photomultiplier (FEU-112) through a cut-off IR light filter and an interference filter with the transmission maximum at 1270 nm. The phosphorescence spectra were measured using a MS-80 high throughput grid monochromator. In this case, phosphorescence was focused on the entry slit of this monochromator. The bandwidth of the monochromator corresponded to a 20 nm spectral interval. The monochromatic light was focused on the photocathode of a cooled S-1 photomultiplier (FEU-83). The photomultiplier signal was registered using time-correlated single photon counting and averaged over many laser pulses. In most experiments, one-channel on time was equal to 81 ns. When the pigment bleaching reached 10%, the solution was replaced by a fresh one and measurement was continued. […] Reasonable phosphorescent curves were obtained after 10-20 minutes signal accumulation and therefore samples were changed many times. As described previously (D. A. Butorina, A. A. Krasnovsky Jr. and A. V. Priezzev, Investigation of the kinetic parameters of singlet molecular oxygen in aqueous porphyrin solutions, Influence of detergents and the quencher sodium azide, Biofizika, 2003, 48, 189-196; A. A. Krasnovsky Jr., Luminescence and photochemical studies of singlet oxygen photonics, J. Photochem. Photobiol. A: Chem., 2008, 196, 210-218; and N. Kuznetsova, D. Makarov, O. Yuzhakova, A. Strizhakov, Y. Roumbal, L. Ulanova, A. Krasnovsky and O. Kaliya, Photophysical properties and photodynamic activity of octacationic oxotitanium(IV) phthalocyanines, Photochemical Photobiological Sciences, 2009, 8, 1724-1733), for computer analysis the following two-exponential equation was used: […]
I(t)I0·[exp(−kdecay·t)−exp(−krise·t)]+n
where kdecay and krise are the rate constants of the decay and rise phases of the phosphorescence curves after a laser pulse, n is the off noise of the photomultiplier, I0 is the zero-time phosphorescence intensity, and I(t) is the phosphorescence intensity at time t. To reduce contribution of the luminescence of the pigment in the quartz cuvette, which was observed shortly after laser pulses, readings were taken starting from 400 ns after laser pulses in ethanol and 1 μs in water. In addition, phosphorescence and kinetic traces were measured also from the control chlorin e4 sodium solutions containing high concentration of sodium azide, which completely quenched singlet oxygen. […]

For series [4], the system named is lung cancer. In words: In vivo studies Example 6: patient, oral chlorin e4 sodium plus laser and LED light. The arrangement: species or system human. Particulars: immediately after the last of three courses. The method, then: A patient with lung cancer was treated successfully. The treatment consisted of three courses. For each course, five doses of 62.5-187.5 mg chlorin e4 sodium were administered orally over the course of eight days. 24-48 hours after each oral dose of chlorin e4 sodium, the patient was treated with laser and LED light having a wavelength of 660 nm and 760 nm.

Setting [5] is: 21 days after the treatments, P<0.05.

Several values for one entry are separate records, joined by “and”; a condition that tells them apart may be missing. Identical values can stand only once.

Consider `C=Cc1c(C)c2cc3nc(c(C)c4[nH]c(cc5nc(cc1[nH]2)C(C)=C5CC)c(C)c4C(=O)O)[C@@H](CCC(=O)O)[C@@H]3C` [chlorin e4 sodium], for which the “Response (PET/CT)” value in series [1] (five courses, interstitial light on left lung) was “very good treatment response”. Also, the Patient status entry in series [1] (one year and five months after starting, two months after completion of treatment) is “alive and well”. In series [2] (24 hours after the treatment), the “Pathological changes of tumour tissues (HE staining)” value was “a wide range of tumour necrosis, tumour vascular disruption and neutrophil infiltration”. Besides, in series [2] (24 hours after treatments), the “Living tumour cells versus control group D (FCM)” value was “obviously fewer”; the “Proportions of apoptotic and necrotic tumour cells versus control group D (FCM)” value is given as “a lot higher”. Further, in series [2] (setting [5]), the “Mean tumour volume versus control group D” value is “statistically significantly smaller” and the “Mean tumour volume, group B versus group C (5-ALA)” value is reported as “statistically significantly smaller in group B than group C”. Besides, in series [2] (after treatments), the “Tumour appearance after treatment (eschars)” value is “Black eschars”. The “Recovery of skins and fur” value in series [2] (mouse, in vivo) was “fully recovered”. In addition, the “Sizes of tumours versus control group D” value in series [2] (six days after the treatments) was “no obvious difference”. Besides, the “Therapeutic effect compared with 5-ALA” value in series [2] (summary of study, P<0.05) is listed as “statistically significantly better therapeutic effect”. The molecule further displayed a Tumour inhibition rate in series [2] (tail vein: Duteroporphyrin 10 mg/kg, chlorin e4 sodium 20 mg/kg, 5-ALA 100 mg/kg, laser 20 minutes, 180 J/cm^2) of 75.4%. In series [3] (511 nm laser pulses, solutions changed after each 60-180 s irradiation), the “Pigment bleaching under laser irradiation” value was “bleached rather rapidly”. For the same molecule, in series [3] (Ethanol), the “Decay time of photosensitized singlet oxygen phosphorescence” value (shortened to “Decay time”) is 13.5 μs and 13.5 ± 0.3 μs; the “Rise time of photosensitized singlet oxygen phosphorescence” value was found to be 0.3 ± 0.3 μs. In series [3] (Water + 0.2M SDS), the “Decay time” value is listed as 3.85 ± 0.3 μs and the “Rise time of photosensitized singlet oxygen phosphorescence” value is on record as 1.2 ± 0.3 μs. In series [3] (Water), the “Decay time” value is reported as 3.3 ± 0.3 μs and the “Rise time of photosensitized singlet oxygen phosphorescence” value was found to be 1.8 ± 0.4 μs. Moreover, the “Rise time of singlet oxygen phosphorescence” value in series [3] (ethanol) was found to be 300 ns. For the same molecule, the “Singlet oxygen quantum yield” value in series [3] (ethanol, from phosphorescence kinetic curves, reference TPPS) came to 0.63±0.05. Moreover, the Photosensitizing activity result in series [3] (water without SDS) is “lower than in ethanol”. In addition, the CT scan finding entry in series [4] is “complete recovery from lung cancer”.

These data come from US20150315202A1, “CHLORIN DERIVATIVE USEFUL IN PHOTODYNAMIC THERAPY AND DIAGNOSIS” (RMW CHO GROUP LIMITED, priority 2012, published 2015).
